Results: US20160257957A1, “METHODS AND COMPOSITIONS FOR TREATMENT OF ANGELMAN SYNDROME AND AUTISM SPECTRUM DISORDERS” (PRESIDENT AND FELLOWS OF HARVARD COLLEGE, priority 2010, published 2016)
Where a SMILES comes first, the peptide text is derived from it. The star is where a group is joined. Cbz = O=C(OCc1ccccc1)*

Tests used:
Ube3A = test: Kainate-induced seizures: Ube3A mRNA and protein in mouse hippocampus; assay type: in vivo, mice; conditions: kainate-induced seizures vs control
Description: FIGS. 8A-8G show regulation of Ube3A mRNA and protein by neuronal activity. (FIG. 8A) Real-time PCR analysis of Ube3A mRNA extracted from hippocampal neurons at E18+10 DIV treated for six hours with the indicated agent. Data are means+/−SEM from three independent experiments. * indicates statistical significance in pairwise comparison to control: P<0.01 T-test. (FIG. 8B) Quantitative Western blot analysis of Ube3A protein. Protein lysates were collected from hippocampal neurons at E18+8 DIV following treatment with the indicated agent for seven hours. This experiment was performed three times independently and the data were normalized to the control and are presented as means+/−SEM. * indicates P<0.01, # indicates P<0.05 in analysis of statistical significance in pairwise comparison to control by T-test. (FIG. 8C) Quantitative Western blot analysis of Ube3A protein. […] (FIG. 8E) Quantitative Western blot analysis of Ube3A protein from mice 2.5 hours after injection with saline (ctl) or kainic acid (seized) to induce seizures. […] (FIG. 8F) Quantitative Western blot analysis of Ube3A protein from mice housed in standard laboratory cages (control) or placed in cages with novel objects (enriched) for 2.5 hours. […]
Quantitative Real-Time PCR was carried out following standard procedures. […]

Arc = conditions: literature; cited from earlier work
[1] = system: muscarinic acetylcholine receptors (mAChR); conditions: literature; cited from earlier work
mGluR5 = target: T1, mGluR5 (Mus musculus, UniProt Q3UVX5); conditions: mouse model of FXS, injection; cited from earlier work
T1 construct: host or cells: mouse model of Fragile X syndrome (in vivo)
T1 sequence (Q3UVX5 19-1203): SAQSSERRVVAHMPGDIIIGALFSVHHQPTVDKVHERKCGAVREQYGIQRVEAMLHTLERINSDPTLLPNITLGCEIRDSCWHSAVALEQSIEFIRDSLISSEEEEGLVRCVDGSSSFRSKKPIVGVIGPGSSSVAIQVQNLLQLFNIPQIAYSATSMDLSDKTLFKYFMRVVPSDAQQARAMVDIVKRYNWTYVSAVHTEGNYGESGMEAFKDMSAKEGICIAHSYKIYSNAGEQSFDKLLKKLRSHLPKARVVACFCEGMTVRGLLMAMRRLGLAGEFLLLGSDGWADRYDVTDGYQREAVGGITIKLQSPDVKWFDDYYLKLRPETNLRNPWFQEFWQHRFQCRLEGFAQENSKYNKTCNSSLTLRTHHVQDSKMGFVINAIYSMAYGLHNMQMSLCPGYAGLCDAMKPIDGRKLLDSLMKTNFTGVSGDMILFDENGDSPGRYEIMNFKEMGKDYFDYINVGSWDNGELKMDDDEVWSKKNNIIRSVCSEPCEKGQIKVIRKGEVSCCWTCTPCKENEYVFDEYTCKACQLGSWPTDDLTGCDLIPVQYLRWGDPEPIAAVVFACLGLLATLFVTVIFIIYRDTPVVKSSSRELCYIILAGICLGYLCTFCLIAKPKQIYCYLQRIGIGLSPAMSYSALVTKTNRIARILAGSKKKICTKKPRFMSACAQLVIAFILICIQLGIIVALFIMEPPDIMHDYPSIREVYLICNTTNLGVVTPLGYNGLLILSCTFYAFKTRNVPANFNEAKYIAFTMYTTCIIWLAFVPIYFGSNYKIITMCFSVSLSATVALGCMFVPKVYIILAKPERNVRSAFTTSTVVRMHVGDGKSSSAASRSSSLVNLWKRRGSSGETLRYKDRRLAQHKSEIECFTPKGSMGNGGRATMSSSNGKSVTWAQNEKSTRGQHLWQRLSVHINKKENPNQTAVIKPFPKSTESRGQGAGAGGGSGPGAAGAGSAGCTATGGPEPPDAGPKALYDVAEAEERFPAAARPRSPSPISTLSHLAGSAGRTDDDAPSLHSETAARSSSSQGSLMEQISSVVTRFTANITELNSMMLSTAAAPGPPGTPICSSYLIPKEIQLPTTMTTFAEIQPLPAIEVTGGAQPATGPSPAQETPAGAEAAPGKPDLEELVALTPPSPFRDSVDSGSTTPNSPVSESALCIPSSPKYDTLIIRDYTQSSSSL

[2] = system: Ube3A-mediated degradation of Arc; test: Ube3A-mediated degradation of Arc in transfected HEK293T cells (Western blot); assay type: cell-based; conditions: HEK293T cells transfected with Arc and Ube3A; MG132 10 μM
Method: (FIG. 9A) Western blot analysis of protein lysates made from brains of wild type and Ube3A knockout mice two hours following kainate acid injection. Immunoprecipitations were performed with an anti-Ube3A antibody and blotted with an anti-Arc antibody to reveal co-immunoprecipitated Arc. Images presented are representative of experiments performed on four independent sets of wildtype and Ube3A knockout mice. (FIG. 9B) Protein lysates were prepared from HEK293T cells transfected with Myc-Arc and HA-tagged ubiquitin and the indicated constructs and then treated with either vehicle control or the proteasome inhibitor MG132 ([…]). Arc was then immunoprecipitated using the anti-Myc antibody 9E10, and Western blot analysis was performed using an anti-Arc antibody to reveal both non-ubiquitinated and ubiquitinated forms of Arc. (FIG. 9C) Mass spectrometric peaks reveal that Ube3A catalyzes the ubiquitination of Arc on lysine 269. […] SEQ ID NO:5 is KGGEFLQYSEGTLSR(SEQ ID NO: 5) shown. Note the presence of two glycine residues covalently linked to the first lysine of this peptide which is indicative of ubiquitin being attached to that specific residue. […] Additional data not pictured here reveal the presence of ubiquitinated lysine 268 as well. […] SEQ ID NO: 6 is LIFAGKGGQLEDGR (SEQ ID NO: 6) shown in upper panel of FIG. 9D. […]

Compound: C=C(C)[C@H]1CN[C@H](C(=O)O)[C@H]1CC(=O)O [kainate, kainic acid]
- Ube3A mRNA level (Ube3A; mouse hippocampus): increased
- Ube3A protein level (Ube3A; mouse): increased

Compound: insulin: insulin
- ARC expression (Arc): increased

Compound: CN1[C@@H]2CC[C@H]1C[C@@H](OC(=O)C(CO)c1ccccc1)C2 (stereo partly drawn) [atropine]
- mAChR-induced expression of ARC [1]: can be inhibited

Compound: Cc1cccc(C#Cc2ccccc2)n1 [MPEP, 2-methyl-6-(phenylethynyl)-pyridine]
- surface expression of AMPARs (mGluR5): restored surface expression of AMPARs
- symptoms associated with FXS (mGluR5): prevented the symptoms associated with FXS

Compound: C[C@@H](CO)CCC[C@@H](C)[C@H]1CC[C@H]2[C@@H]3CC=C4C[C@@H](O)CC[C@]4(C)[C@H]3CC[C@]12C [27-hydroxycholesterol]
- ARC expression (Arc): specifically decreased

Compound: O=S(=O)(NCCNC/C=C/c1ccc(Br)cc1)c1cccc2cnccc12 [H89]
- ARC expression (Arc): induction of ARC expression

Compound: CC(C)C[C@@H](C=O)NC(=O)[C@H](CC(C)C)NC(=O)[C@H](CC(C)C)NC(=O)OCc1ccccc1 [MG132] (Cbz-Leu-Leu-Leu-aldehyde)
- Ube3A-mediated degradation of Arc [2]: blocked Ube3A-mediated degradation of Arc
